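Test compounds were applied to cells in 96-well plates for 48 hours at 5 doses. GI50 is the concentration that inhibits growth by half.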 Active and inactive are the calls of the source. Cut-off read from the data, not from the text of the source: active = GI50 up to about 1.1 µM and inactive = higher.
Tests used:
Experiment in all cases: inhibition of tumour cell growth, NCI panel, 48 h
MCF7 = system: MCF7
SK-MEL-2 = system: SK-MEL-2
HL-60 = system: HL-60
PC-3 = system: PC-3
NCI-H226 = system: NCI-H226
A549 = system: A549
RXF 393 = system: RXF 393
786-0 = system: 786-0
K562 = system: K562
SK-MEL-28 = system: SK-MEL-28
MDA-N = system: MDA-N
MDA-MB-435 = system: MDA-MB-435
SF-268 = system: SF-268
DU-145 = system: DU-145
CAKI-1 = system: CAKI-1
MOLT-4 = system: MOLT-4
RPMI-8226 = system: RPMI-8226
HCT-116 = system: HCT-116
Malme-3M = system: Malme-3M
HOP-62 = system: HOP-62
SF-295 = system: SF-295
NCI-H522 = system: NCI-H522
U-251 = system: U-251
OVCAR-8 = system: OVCAR-8
SR = system: SR
MDA-MB-231 = system: MDA-MB-231
NCI/ADR-RES = system: NCI/ADR-RES
HCT-15 = system: HCT-15
HOP-92 = system: HOP-92
OVCAR-5 = system: OVCAR-5
SF-539 = system: SF-539
OVCAR-4 = system: OVCAR-4
T47D = system: T47D
UO-31 = system: UO-31
A498 = system: A498
IGROV-1 = system: IGROV-1
UACC-257 = system: UACC-257
M14 = system: M14
KM12 = system: KM12
SNB-75 = system: SNB-75
UACC-62 = system: UACC-62
Hs-578T = system: Hs-578T
SN12C = system: SN12C
NCI-H460 = system: NCI-H460
SW-620 = system: SW-620
SNB-19 = system: SNB-19
EKVX = system: EKVX
BT-549 = system: BT-549
HT-29 = system: HT-29
OVCAR-3 = system: OVCAR-3
COLO 205 = system: COLO 205
LOX IMVI = system: LOX IMVI
NCI-H23 = system: NCI-H23
CCRF-CEM = system: CCRF-CEM
ACHN = system: ACHN
SK-MEL-5 = system: SK-MEL-5
SK-OV-3 = system: SK-OV-3
HCC 2998 = system: HCC 2998
TK-10 = system: TK-10

`O=c1[nH]c2cc([N+](=O)[O-])c(N(CCO)CCO)c([N+](=O)[O-])c2[nH]1` was tested, and the GI50 (MCF7) was 46.8 µM (inactive), the GI50 (SK-MEL-2) was 37.6 µM (inactive) and the GI50 (HL-60) was 28.2 µM (inactive). The GI50 (PC-3) was 44.4 µM (inactive), the GI50 (NCI-H226) was 24 µM (inactive) and the GI50 (A549) was 35.2 µM (inactive). For the same compound, the GI50 (RXF 393) was 16.7 µM (inactive), the GI50 (786-0) was 35.4 µM (inactive) and the GI50 (K562) was 32 µM (inactive). The GI50 (SK-MEL-28) was 29.4 µM (inactive), the GI50 (MDA-N) was 33.7 µM (inactive) and the GI50 (MDA-MB-435) was 28.7 µM (inactive). For the same compound, the GI50 (SF-268) was 37.4 µM (inactive), the GI50 (DU-145) was 39.4 µM (inactive) and the GI50 (CAKI-1) was 29 µM (inactive). The GI50 (MOLT-4) was 24.5 µM (inactive), the GI50 (RPMI-8226) was 26.7 µM (inactive) and the GI50 (HCT-116) was 27.7 µM (inactive). The GI50 (Malme-3M) was 61.2 µM (inactive), the GI50 (HOP-62) was 33 µM (inactive) and the GI50 (SF-295) was 28.4 µM (inactive). The GI50 (NCI-H522) was 28.1 µM (inactive), the GI50 (U-251) was 44.1 µM (inactive) and the GI50 (OVCAR-8) was 31.3 µM (inactive). For the same compound, the GI50 (SR) was 24.1 µM (inactive), the GI50 (MDA-MB-231) was 52.6 µM (inactive) and the GI50 (NCI/ADR-RES) was 31.8 µM (inactive). For the same compound, the GI50 (HCT-15) was 31.3 µM, the GI50 (HOP-92) was 41 µM (inactive) and the GI50 (OVCAR-5) was 31.9 µM (inactive). For the same compound, the GI50 (SF-539) was 23.8 µM (inactive), the GI50 (OVCAR-4) was 36 µM (inactive) and the GI50 (T47D) was 19.5 µM (inactive). For the same compound, the GI50 (UO-31) was 35.1 µM (inactive), the GI50 (A498) was 22.2 µM (inactive) and the GI50 (IGROV-1) was 65.5 µM (inactive). The GI50 (UACC-257) was 27 µM (inactive), the GI50 (M14) was 28.6 µM (inactive) and the GI50 (KM12) was 22.6 µM (inactive). The GI50 (SNB-75) was 23.6 µM (inactive), the GI50 (UACC-62) was 24.1 µM (inactive) and the GI50 (Hs-578T) was 53.2 µM (inactive). For the same compound, the GI50 (SN12C) was 34.8 µM (inactive), the GI50 (NCI-H460) was 21.4 µM (inactive) and the GI50 (SW-620) was 41.2 µM (inactive). The GI50 (SNB-19) was 39.8 µM (inactive), the GI50 (EKVX) was 12.9 µM (inactive) and the GI50 (BT-549) was 18.5 µM (inactive). For the same compound, the GI50 (HT-29) was 30.3 µM (inactive), the GI50 (OVCAR-3) was 16.9 µM (inactive) and the GI50 (COLO 205) was 20 µM (inactive). The GI50 (LOX IMVI) was 37.5 µM (inactive), the GI50 (NCI-H23) was 30.5 µM (inactive) and the GI50 (CCRF-CEM) was 44.7 µM (inactive). For the same compound, the GI50 (ACHN) was 43.7 µM (inactive), the GI50 (SK-MEL-5) was 17.5 µM (inactive) and the GI50 (SK-OV-3) was 27 µM (inactive).

With `O=C1Nc2ccc(S(=O)(=O)N(CCO)CCO)cc2/C1=C1/Nc2ccccc2C1=O` the GI50 (MCF7) was 0.615 µM (active), the GI50 (SK-MEL-2) was > 100 µM (inactive) and the GI50 (PC-3) was 30.3 µM (inactive). The GI50 (NCI-H226) was > 100 µM (inactive), the GI50 (A549) was > 100 µM (inactive) and the GI50 (RXF 393) was 1.56 µM (inactive). The GI50 (786-0) was > 100 µM (inactive), the GI50 (K562) was > 100 µM (inactive) and the GI50 (SK-MEL-28) was > 100 µM (inactive). The GI50 (MDA-N) was > 100 µM (inactive), the GI50 (MDA-MB-435) was > 100 µM (inactive) and the GI50 (SF-268) was > 100 µM (inactive). For the same compound, the GI50 (DU-145) was 13.3 µM (inactive), the GI50 (CAKI-1) was > 100 µM (inactive) and the GI50 (MOLT-4) was 62.4 µM (inactive). For the same compound, the GI50 (RPMI-8226) was > 100 µM (inactive), the GI50 (HCT-116) was 51.6 µM (inactive) and the GI50 (Malme-3M) was > 100 µM (inactive). The GI50 (HOP-62) was > 100 µM (inactive), the GI50 (SF-295) was > 100 µM (inactive) and the GI50 (NCI-H522) was > 100 µM (inactive). The GI50 (HCC 2998) was > 100 µM (inactive), the GI50 (U-251) was 96.6 µM (inactive) and the GI50 (TK-10) was > 100 µM (inactive). For the same compound, the GI50 (OVCAR-8) was > 100 µM (inactive), the GI50 (SR) was 1.91 µM (inactive) and the GI50 (MDA-MB-231) was 40.5 µM (inactive). The GI50 (NCI/ADR-RES) was > 100 µM (inactive), the GI50 (HCT-15) was greater than 100 µM and the GI50 (HOP-92) was > 100 µM (inactive). For the same compound, the GI50 (OVCAR-5) was > 100 µM (inactive), the GI50 (OVCAR-4) was 48 µM (inactive) and the GI50 (T47D) was 0.679 µM (active). For the same compound, the GI50 (UO-31) was > 100 µM (inactive), the GI50 (A498) was > 100 µM (inactive) and the GI50 (IGROV-1) was 2.5 µM (inactive). The GI50 (UACC-257) was > 100 µM (inactive), the GI50 (M14) was > 100 µM (inactive) and the GI50 (KM12) was 17.7 µM (inactive). For the same compound, the GI50 (SNB-75) was 2.82 µM (inactive), the GI50 (UACC-62) was > 100 µM (inactive) and the GI50 (Hs-578T) was > 100 µM (inactive). The GI50 (SN12C) was > 100 µM (inactive), the GI50 (NCI-H460) was > 100 µM (inactive) and the GI50 (SW-620) was > 100 µM (inactive). The GI50 (SNB-19) was > 100 µM (inactive), the GI50 (EKVX) was > 100 µM (inactive) and the GI50 (BT-549) was > 100 µM (inactive). For the same compound, the GI50 (HT-29) was > 100 µM (inactive), the GI50 (OVCAR-3) was 18.2 µM (inactive) and the GI50 (COLO 205) was 8.05 µM (inactive). For the same compound, the GI50 (LOX IMVI) was > 100 µM (inactive), the GI50 (NCI-H23) was > 100 µM (inactive) and the GI50 (CCRF-CEM) was > 100 µM (inactive). For the same compound, the GI50 (ACHN) was > 100 µM (inactive), the GI50 (SK-MEL-5) was > 100 µM (inactive) and the GI50 (SK-OV-3) was > 100 µM (inactive).

For `N#Cc1nc(CSCc2ccccc2)oc1N`, the GI50 (MCF7) was > 100 µM (inactive), the GI50 (SK-MEL-2) was > 100 µM (inactive) and the GI50 (PC-3) was > 100 µM (inactive). The GI50 (NCI-H226) was > 100 µM (inactive), the GI50 (A549) was > 100 µM (inactive) and the GI50 (RXF 393) was > 100 µM (inactive). The GI50 (786-0) was > 100 µM (inactive), the GI50 (SK-MEL-28) was > 100 µM (inactive) and the GI50 (MDA-N) was > 100 µM (inactive). For the same compound, the GI50 (MDA-MB-435) was > 100 µM (inactive), the GI50 (SF-268) was > 100 µM (inactive) and the GI50 (DU-145) was > 100 µM (inactive). The GI50 (CAKI-1) was > 100 µM (inactive), the GI50 (MOLT-4) was > 100 µM (inactive) and the GI50 (HCT-116) was > 100 µM (inactive). For the same compound, the GI50 (Malme-3M) was 1.35 µM (inactive), the GI50 (HOP-62) was > 100 µM (inactive) and the GI50 (SF-295) was > 100 µM (inactive). The GI50 (NCI-H522) was 42.6 µM (inactive), the GI50 (HCC 2998) was > 100 µM (inactive) and the GI50 (U-251) was > 100 µM (inactive). The GI50 (TK-10) was > 100 µM (inactive), the GI50 (OVCAR-8) was > 100 µM (inactive) and the GI50 (SR) was > 100 µM (inactive). For the same compound, the GI50 (MDA-MB-231) was > 100 µM (inactive), the GI50 (NCI/ADR-RES) was > 100 µM (inactive) and the GI50 (HCT-15) was greater than 100 µM. For the same compound, the GI50 (HOP-92) was > 100 µM (inactive), the GI50 (OVCAR-5) was > 100 µM (inactive) and the GI50 (SF-539) was > 100 µM (inactive). The GI50 (OVCAR-4) was > 100 µM (inactive), the GI50 (T47D) was > 100 µM (inactive) and the GI50 (UO-31) was > 100 µM (inactive). The GI50 (A498) was > 100 µM (inactive), the GI50 (IGROV-1) was > 100 µM (inactive) and the GI50 (UACC-257) was > 100 µM (inactive). For the same compound, the GI50 (M14) was > 100 µM (inactive), the GI50 (KM12) was > 100 µM (inactive) and the GI50 (UACC-62) was > 100 µM (inactive). The GI50 (Hs-578T) was > 100 µM (inactive), the GI50 (SN12C) was > 100 µM (inactive) and the GI50 (NCI-H460) was > 100 µM (inactive). For the same compound, the GI50 (SW-620) was > 100 µM (inactive), the GI50 (BT-549) was > 100 µM (inactive) and the GI50 (HT-29) was > 100 µM (inactive). The GI50 (OVCAR-3) was > 100 µM (inactive), the GI50 (COLO 205) was > 100 µM (inactive) and the GI50 (NCI-H23) was > 100 µM (inactive). The GI50 (CCRF-CEM) was 19.8 µM (inactive), the GI50 (ACHN) was > 100 µM (inactive) and the GI50 (SK-OV-3) was > 100 µM (inactive).
